The target in assay [1] is T1, Adrenergic receptor alpha (Rattus norvegicus) (UniProt P15823+P23944+P43140+P22086+P19328+P22909). The experiment in a line: Irreversible inhibition of alpha adrenergic receptor in rat vas deferens assessed as inhibition of NE-induced contractions at 2 x 10' -5 M after 30 mins relative to [N,N'-bis(o-methoxybenzylamino-n-hexyl)cystamine. Type of assay: tissue-based.

Assay [2] deals with T1, Adrenergic receptor alpha (Rattus norvegicus). The experiment in a line: Irreversible inhibition of alpha adrenergic receptor in rat vas deferens assessed as inhibition of NE-induced contractions at 2 x 10' -5 M after 30 mins relative to N1,N1'-(2,2'-disulfanediylbis(ethane-2,1-diyl))dioctane-1,8-diamine tetrahydrochloride. The format is tissue-based.
Assay [3] is filed under the species Oryctolagus cuniculus. The experiment in a line: Irreversible inhibition of alpha adrenergic receptor in rabbit aortic strip assessed as inhibition of NE-induced contractions at 1 to 3 uM after 18 hrs.
The species entered for assay [4] is Cavia porcellus. The experiment in a line: Effect on muscarinic acetylcholine receptor in guinea pig ileum assessed as reduction in acetylcholine-induced contractile response treated at 30 uM for 40 mins measured after 20 mins post washout. Type of assay: tissue-based.
The species named for assay [5] is Oryctolagus cuniculus. The experiment in a line: Irreversible inhibition of alpha adrenergic receptor in rabbit aortic strip assessed as inhibition of NE-induced contractions at 0.3 uM after 90 mins.
The species named for assay [6] is Cavia porcellus. Kind of assay: Effect on muscarinic receptor in guinea pig atrium assessed as reduction in carbachol-mediated ionotropic/chronotropic potency at 30 uM after 26 mins. Particulars: Cardiac atrium. The format is tissue-based.
The species named for assay [7] is Oryctolagus cuniculus. The experiment in a line: Effect on histamine receptor in potassium-contracted rabbit aortic strip assessed as change in histamine-mediated response at 10 uM after 30 mins.
The species entered for assay [8] is Oryctolagus cuniculus. Kind of assay: Effect on beta adrenergic receptor in potassium-contracted rabbit aortic strip assessed as change in isoprenaline-mediated response at 10 uM after 30 mins.
The species named for assay [9] is Cavia porcellus. The experiment in a line: Potentiation of NE-mediated alpha adrenergic receptor activity in guinea pig atrium at 10 to 30 uM. Type of assay: tissue-based. The note with it: Cardiac atrium.
For assay [10], the species on record is Oryctolagus cuniculus. Kind of assay: Effect on 5-HT receptor in potassium-contracted rabbit aortic strip assessed as change in 5-HT-mediated response at 10 uM after 30 mins.
Assay [11] is filed under the species Cavia porcellus. Kind of assay: Antagonist activity at muscarinic receptor in guinea pig atrium assessed as reduction in butyrylcholine-induced response at 10 to 30 uM. Type of assay: tissue-based. Particulars: Cardiac atrium.
The species entered for assay [12] is Cavia porcellus. Kind of assay: Antagonist activity at alpha adrenergic receptor in guinea pig atrium assessed as reduction in tyramine-mediated ionotropic/chronotropic potency at 10 to 30 uM. Type of assay: tissue-based. Particulars: Cardiac atrium.
For assay [13], the species on record is Cavia porcellus. The experiment in a line: Effect on muscarinic acetylcholine receptor in guinea pig ileum assessed as reduction in acetylcholine-induced contractile response at 7 uM after 20 to 40 mins. The format is tissue-based. On the set-up: scale not given: the % may be the effect or the level left.
For assay [14], the species on record is Cavia porcellus. The experiment in a line: Effect on muscarinic receptor in guinea pig atrium assessed as reduction in carbachol-mediated ionotropic/chronotropic potency at 0.24 uM after 30 to 60 mins. The format is tissue-based. On the set-up: scale not given: the % may be the effect or the level left. The note with it: Cardiac atrium.
For assay [15], the species on record is Cavia porcellus. The experiment in a line: Antagonist activity at alpha adrenergic receptor in guinea pig atrium assessed as inhibition of 30 uM NE-induced contractions treated at 3 uM for 30 mins followed by washout. Particulars: Cardiac atrium. Type of assay: tissue-based.
The target in assay [16] is T1, Adrenergic receptor alpha (Rattus norvegicus). The experiment in a line: Irreversible inhibition of alpha adrenergic receptor in rat vas deferens assessed as inhibition of NE-induced contractions at <20 uM after 30 mins. The format is tissue-based.
The species named for assay [17] is Cavia porcellus. The experiment in a line: Effect on muscarinic receptor in guinea pig atrium assessed as reduction in carbachol-mediated ionotropic/chronotropic potency at 10 uM after 17 mins. Type of assay: tissue-based. The note with it: Cardiac atrium.
Assay [18] is filed under the species Cavia porcellus. Kind of assay: Effect on muscarinic receptor in guinea pig atrium assessed as reduction in carbachol-mediated ionotropic/chronotropic potency at 0.17 uM after 30 to 60 mins. Type of assay: tissue-based. On the set-up: scale not given: the % may be the effect or the level left. The note with it: Cardiac atrium.
The species named for assay [19] is Cavia porcellus. The experiment in a line: Antagonist activity at muscarinic receptor in guinea pig atrium assessed as reduction in butyrylcholine-induced response. The format is tissue-based. Particulars: Cardiac atrium.
Assay [20] is filed under the species Cavia porcellus. Kind of assay: Antagonist activity at alpha adrenergic receptor in guinea pig atrium assessed as reduction in tyramine-mediated ionotropic/chronotropic potency. Type of assay: tissue-based. The note with it: Cardiac atrium.
The species entered for assay [21] is Cavia porcellus. The experiment in a line: Antagonist activity at alpha adrenergic receptor in guinea pig atrium assessed as inhibition of 30 uM NE-induced contractions treated at 0.147 uM. Type of assay: tissue-based. The note with it: Cardiac atrium.
Assay [22] is filed under the species Cavia porcellus. The experiment in a line: Potentiation of NE-mediated alpha adrenergic receptor activity in guinea pig atrium. Type of assay: tissue-based. The note with it: Cardiac atrium.
The species named for assay [23] is Cavia porcellus. The experiment in a line: Antagonist activity at alpha adrenergic receptor in guinea pig atrium assessed as inhibition of 300 uM NE-induced contractions treated at 0.147 uM. Type of assay: tissue-based. The note with it: Cardiac atrium.

This is an account of results in ChEMBL document CHEMBL3272229, “Molecular properties of the adrenergic alpha receptor. 2. Optimum covalent inhibition by two different prototypes of polyamine disulfides” (J Med Chem, 1978).

Each structure is given as a SMILES string. Activity calls are given as the source filed them. The calls are words filed in the database; no cut-off is given here.

Regarding `COc1ccccc1CNCCCCCCCNCCSSCCNCCCCCCCNCc1ccccc1OC`, the inhibition in assay [1] and in assay [2] was 71% throughout.

On to `Clc1ccccc1CNCCCCCCCNCCSSCCNCCCCCCCNCc1ccccc1Cl`, for which the inhibition in [1] and in assay [2] was 36% in each case.

`Cc1ccccc1CNCCCCCCNCCSSCCNCCCCCCNCc1ccccc1C`: the inhibition in assay [1] and in assay [2] was 69% throughout.

`COc1ccccc1CNCCCCCCN(C)CCSSCCN(C)CCCCCCNCc1ccccc1OC`: the inhibition in [1] and in assay [2] was 48% throughout.

In the case of `NCCCCCCCCCNCCSSCCNCCCCCCCCCN`, the inhibition in [1] and in assay [2] was 92% each time.

In the case of `COc1ccccc1CNCCCCCCCCNCCSSCCNCCCCCCCCNCc1ccccc1OC`, the inhibition in assay [1] and in assay [2] was 41% in each case.

In the case of `COc1cccc(CNCCCCCCNCCSSCCNCCCCCCNCc2cccc(OC)c2OC)c1OC`, the inhibition in assay [1] and in [2] was 26% in each case.

For the molecule `Clc1ccccc1CNCCCCCCNCCSSCCNCCCCCCNCc1ccccc1Cl`, the inhibition in assay [1] and in assay [2] was 44% in each case.

Regarding `COc1ccccc1CNCCCCCCNCCSSCCNCCCCCCNCc1ccccc1OC`, the inhibition entry in the assay listed under Oryctolagus cuniculus [3] and in the assay listed under Oryctolagus cuniculus [5] was “Active” each time. In addition, the result in the assay listed under Cavia porcellus [4], in the assay filed under Cavia porcellus [6], in the assay filed under Oryctolagus cuniculus [7], in the assay filed under Oryctolagus cuniculus [8], in the assay listed under Cavia porcellus [9] and in the assay filed under Oryctolagus cuniculus [10] was inactive. In addition, the inhibition result in the assay filed under Cavia porcellus [11], in the assay listed under Cavia porcellus [12] and in the assay filed under Cavia porcellus [15] was “inactive” each time. Also, in assay [2], the inhibition came out at 100%. Further, the Activity in the assay listed under Cavia porcellus [13] and in the assay listed under Cavia porcellus [14] was 50% in each case.

As to `COc1ccc(CNCCCCCCNCCSSCCNCCCCCCNCc2ccc(OC)c(OC)c2)cc1OC`, the inhibition in [1] and in assay [2] was 24% in each case.

In the case of `Cc1ccccc1CNCCCCCCCNCCSSCCNCCCCCCCNCc1ccccc1C`, the inhibition in assay [1] and in assay [2] was 56% in each case.

Take `CN(CCCCCCCCN)CCSSCCN(C)CCCCCCCCN`: the inhibition in assay [1] and in [2] was 90% in each case.

For `COc1cc(CNCCCCCCNCCSSCCNCCCCCCNCc2cc(OC)cc(OC)c2)cc(OC)c1`, the inhibition in assay [1] and in assay [2] was 41% each time.

Regarding `NCCCCCCCCNCCSSCCNCCCCCCCCN`, the inhibition in [1] is 100%. Moreover, the inhibition entry in assay [16] was “Active”.

Regarding `COc1ccc(CNCCCCCCNCCSSCCNCCCCCCNCc2ccc(OC)cc2)cc1`, the inhibition in assay [1] and in assay [2] was 81% throughout.

On to `COc1ccccc1CNCCCCCCNCCCCCCNCCCCCCNCc1ccccc1OC`, for which the outcome in the assay listed under Cavia porcellus [17] was inactive. Further, the Activity in the assay listed under Cavia porcellus [18] was 50%.

With `NCCCCCCCCCCCCNCCSSCCNCCCCCCCCCCCCN`, the inhibition in assay [1] and in [2] was 24% throughout.

As to `C=CCOc1ccccc1CNCCCCCCNCCSSCCNCCCCCCNCc1ccccc1OCC=C`, the inhibition in [1] and in assay [2] was 71% throughout.

Consider `c1ccc(CNCCCCCCCNCCSSCCNCCCCCCCNCc2ccccc2)cc1`, for which the inhibition in [1] and in [2] was 58% each time.

`NCCCCCCCCCCNCCSSCCNCCCCCCCCCCN`: the inhibition in assay [1] and in assay [2] was 56% throughout.

For the molecule `c1ccc(CNCCCCCCNCCSSCCNCCCCCCNCc2ccccc2)cc1`, the inhibition in assay [1] and in assay [2] was 90% in each case.

`NCCCCCNCCSSCCNCCCCCN`: the inhibition in [1] and in assay [2] was 10% in each case.

Take `Cc1ccccc1CNCCCCCCCCNCCSSCCNCCCCCCCCNCc1ccccc1C`: the inhibition in assay [1] and in assay [2] was 49% each time.

Take `COc1ccc(OC)c(CNCCCCCCNCCSSCCNCCCCCCNCc2cc(OC)ccc2OC)c1`: the inhibition in assay [1] and in [2] was 76% in each case.

With `COc1cccc(CNCCCCCCNCCSSCCNCCCCCCNCc2cccc(OC)c2)c1`, the inhibition in [1] and in [2] was 72% throughout.

For `Oc1ccc(CNCCCCCCNCCSSCCNCCCCCCNCc2ccc(O)c(O)c2)cc1O`, the inhibition in [1] and in assay [2] was 98% in each case.

As for `CC(COc1ccccc1)N(CCCl)Cc1ccccc1` (stereo not drawn), the inhibition result in the assay listed under Cavia porcellus [19], in the assay filed under Cavia porcellus [20], in the assay filed under Cavia porcellus [21] and in the assay listed under Cavia porcellus [23] was “Active” each time. The outcome in the assay filed under Cavia porcellus [22] was Active.

As to `Clc1cccc(Cl)c1CNCCCCCCCNCCSSCCNCCCCCCCNCc1c(Cl)cccc1Cl`, the inhibition in assay [1] and in [2] was 39% each time.

For the molecule `CCOc1ccccc1CNCCCCCCNCCSSCCNCCCCCCNCc1ccccc1OCC`, the inhibition in assay [1] and in assay [2] was 81% throughout.

For `NCCCCCCNCCSSCCNCCCCCCN`, the inhibition in assay [1] and in [2] was 27% each time.

As to `COc1ccc(CNCCCCCCNCCSSCCNCCCCCCNCc2ccc(OC)cc2OC)c(OC)c1`, the inhibition in assay [1] and in assay [2] was 26% throughout.

In the case of `COc1ccccc1CNCCCCCNCCSSCCNCCCCCNCc1ccccc1OC`, the inhibition in [1] and in assay [2] was 59% each time.

In the case of `Clc1cccc(Cl)c1CNCCCCCCNCCSSCCNCCCCCCNCc1c(Cl)cccc1Cl`, the inhibition in assay [1] and in assay [2] was 40% each time.

Take `NCCCCCCCNCCSSCCNCCCCCCCN`: the inhibition in [1] and in [2] was 63% throughout.
